Earlier results, collected in patent publication US5030442A (priority 1989, dated 1991).
Entries after “also recorded” stand apart in the source; their conditions may differ.

Conditions: topical form, initial clinical studies

Nc1cc(N2CCCCC2)nc(N)[n+]1[O-] [minoxidil]
hair growth response (in words): reversal of male pattern baldness is most favorable in younger men, and where recent hair loss has occurred; also recorded: new hair growth is observed in a significant percentage of older men and/or where in cases of long-term baldness
